From patent publication US12139492B2 (Endotarget Inc., priority 2021, dated 2024)
pIC50: −log10 of the molar value.

How the values were obtained:
Assay type in all cases: cell-based
JeKo-1 cells = assay: Antiproliferative effect, MTS cell viability assay, JeKo-1 cells; settings: Homo sapiens; JeKo-1 mantle cell lymphoma cells; read-out: IC50 (anti-proliferation) JeKO-1 cells
Summary of the method: (§1)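 Cells were exposed to compound at 0, 0.001, 0.01, 0.1, 1 and 10 μM for 72 h. Viability was then measured by MTS assay, reading formazan produced by metabolically active cells as absorbance at 490 nm.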

Mino cells = assay: Antiproliferative effect, MTS cell viability assay, Mino cells; settings: Homo sapiens, MINO, Mino mantle cell lymphoma cells; read-out: IC50 (anti-proliferation) Mino cells
Summary of the method: as §1

BTK = BTK (Homo sapiens, UniProt Q06187); assay: BTK degradation, DC50 and Dmax of Table 1 (cell line not given); set-up: endogenous in cells; settings: for DC50: concentration giving 50% reduction of BTK expression level
Chain of BTK (Q06187 whole entry): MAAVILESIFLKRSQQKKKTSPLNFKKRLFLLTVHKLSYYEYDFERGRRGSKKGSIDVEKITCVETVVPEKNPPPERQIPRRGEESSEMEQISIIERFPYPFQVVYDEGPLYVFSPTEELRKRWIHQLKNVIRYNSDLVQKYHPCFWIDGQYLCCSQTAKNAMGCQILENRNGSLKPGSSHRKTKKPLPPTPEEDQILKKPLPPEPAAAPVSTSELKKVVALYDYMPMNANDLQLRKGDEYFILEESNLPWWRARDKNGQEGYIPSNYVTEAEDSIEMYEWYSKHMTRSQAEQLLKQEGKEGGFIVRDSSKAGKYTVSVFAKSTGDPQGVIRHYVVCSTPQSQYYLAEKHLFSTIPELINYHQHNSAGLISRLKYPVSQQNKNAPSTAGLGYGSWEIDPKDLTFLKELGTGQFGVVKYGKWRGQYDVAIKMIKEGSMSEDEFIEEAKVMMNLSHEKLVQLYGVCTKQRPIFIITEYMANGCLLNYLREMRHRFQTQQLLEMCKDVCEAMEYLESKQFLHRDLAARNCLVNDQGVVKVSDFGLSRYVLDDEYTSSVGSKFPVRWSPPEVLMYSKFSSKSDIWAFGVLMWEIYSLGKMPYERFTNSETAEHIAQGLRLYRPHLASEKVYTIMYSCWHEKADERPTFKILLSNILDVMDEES

Row | Compound | pIC50 (JeKo-1 cells) | pIC50 (Mino cells) | Dmax (BTK) [%] | DC50 (BTK) [µM]
1 | Nc1ncnc2c1c(-c1ccc(Oc3ccccc3)cc1)nn2C1CCN(CCOCCN2CCN(c3ccc4c(c3)C(=O)N(C3CCC(=O)NC3=O)C4=O)CC2)CC1 (stereo not drawn) [Compound 5, 5-(4-(2-(2-(4-(4-amino-3-(4-phenoxyphenyl)-1H-pyrazolo[3,4-d]pyrimidin-1-yl)piperidin-1-yl)ethoxy)ethyl)piperazin-1-yl)-2-(2,6-dioxopiperidin-3-yl)isoindoline-1,3-dione] | 5.00 to 6.00 | 5.00 to 6.00 | > 90 | 0.01 to 0.05
2 | Nc1ncnc2c1c(-c1ccc(Oc3ccccc3)cc1)nn2C1CCN(CCOCCN2CCN(c3ccc4c(c3)CN(C3CCC(=O)NC3=O)C4=O)CC2)CC1 (stereo not drawn) [Compound 6, 3-(5-(4-(2-(2-(4-(4-amino-3-(4-phenoxyphenyl)-1H-pyrazolo[3,4-d]pyrimidin-1-yl)piperidin-1-yl)ethoxy)ethyl)piperazin-1-yl)-1-oxoisoindolin-2-yl)piperidine-2,6-dione] | > 6.00 | > 6.00 | > 90 | 0.01 to 0.05
3 | Nc1ncnc2c1c(-c1ccc(Oc3ccccc3)cc1)nn2C1CCCN(CCOCCN2CCN(c3ccc4c(c3)C(=O)N(C3CCC(=O)NC3=O)C4=O)CC2)C1 (stereo not drawn) [Compound 7, 5-(4-(2-(2-(3-(4-amino-3-(4-phenoxyphenyl)-1H-pyrazolo[3,4-d]pyrimidin-1-yl)piperidin-1-yl)ethoxy)ethyl)piperazin-1-yl)-2-(2,6-dioxopiperidin-3-yl)isoindoline-1,3-dione] | 5.00 to 6.00 | 5.00 to 6.00 | > 75 | 0.01 to 0.05
4 | Nc1ncnc2c1c(-c1ccc(Oc3ccccc3)cc1)nn2C1CCCN(CCOCCN2CCN(c3ccc4c(c3)CN(C3CCC(=O)NC3=O)C4=O)CC2)C1 (stereo not drawn) [Compound 8, 3-(5-(4-(2-(2-(3-(4-amino-3-(4-phenoxyphenyl)-1H-pyrazolo[3,4-d]pyrimidin-1-yl)piperidin-1-yl)ethoxy)ethyl)piperazin-1-yl)-1-oxoisoindolin-2-yl)piperidine-2,6-dione] | 5.00 to 6.00 | 5.00 to 6.00 | > 90 | 0.01 to 0.05
5 | Nc1ncnc2c1c(-c1ccc(Oc3ccccc3)cc1)nn2C1CCN(CCOCCOCCN2CCC(c3ccc4c(c3)C(=O)N(C3CCC(=O)NC3=O)C4=O)CC2)CC1 (stereo not drawn) [Compound 9, 5-(1-(2-(2-(2-(4-(4-amino-3-(4-phenoxyphenyl)-1H-pyrazolo[3,4-d]pyrimidin-1-yl)piperidin-1-yl)ethoxy)ethoxy)ethyl)piperidin-4-yl)-2-(2,6-dioxopiperidin-3-yl)isoindoline-1,3-dione] | 5.00 to 6.00 | 5.00 to 6.00 | > 90 | < 0.01
6 | Nc1ncnc2c1c(-c1ccc(Oc3ccccc3)cc1)nn2C1CCN(CCOCCOCCN2CCC(c3ccc4c(c3)CN(C3CCC(=O)NC3=O)C4=O)CC2)CC1 (stereo not drawn) [Compound 10, 3-(5-(1-(2-(2-(2-(4-(4-amino-3-(4-phenoxyphenyl)-1H-pyrazolo[3,4-d]pyrimidin-1-yl)piperidin-1-yl)ethoxy)ethoxy)ethyl)piperidin-4-yl)-1-oxoisoindolin-2-yl)piperidine-2,6-dione] | 5.00 to 6.00 | > 6.00 | > 90 | < 0.01
7 | Nc1ncnc2c1c(-c1ccc(Oc3ccccc3)cc1)nn2C1CCN(CCOCCN2CCC(c3ccc4c(c3)C(=O)N(C3CCC(=O)NC3=O)C4=O)CC2)CC1 (stereo not drawn) [Compound 11, 5-(1-(2-(2-(4-(4-amino-3-(4-phenoxyphenyl)-1H-pyrazolo[3,4-d]pyrimidin-1-yl)piperidin-1-yl)ethoxy)ethyl)piperidin-4-yl)-2-(2,6-dioxopiperidin-3-yl)isoindoline-1,3-dione] | 5.00 to 6.00 | 5.00 to 6.00 | > 90 | 0.01 to 0.05
8 | Nc1ncnc2c1c(-c1ccc(Oc3ccccc3)cc1)nn2C1CCN(CCOCCN2CCC(c3ccc4c(c3)CN(C3CCC(=O)NC3=O)C4=O)CC2)CC1 (stereo not drawn) [Compound 12, 3-(5-(1-(2-(2-(4-(4-amino-3-(4-phenoxyphenyl)-1H-pyrazolo[3,4-d]pyrimidin-1-yl)piperidin-1-yl)ethoxy)ethyl)piperidin-4-yl)-1-oxoisoindolin-2-yl)piperidine-2,6-dione] | > 6.00 | > 6.00 | > 90 | 0.01 to 0.05
9 | Nc1ncnc2c1c(-c1ccc(Oc3ccccc3)cc1)nn2C1CCCN(CCOCCOCCN2CCC(c3ccc4c(c3)C(=O)N(C3CCC(=O)NC3=O)C4=O)CC2)C1 (stereo not drawn) [Compound 13, 5-(1-(2-(2-(2-(3-(4-amino-3-(4-phenoxyphenyl)-1H-pyrazolo[3,4-d]pyrimidin-1-yl)piperidin-1-yl)ethoxy)ethoxy)ethyl)piperidin-4-yl)-2-(2,6-dioxopiperidin-3-yl)isoindoline-1,3-dione] | 5.00 to 6.00 | 5.00 to 6.00 | > 75 | 0.01 to 0.05
10 | Nc1ncnc2c1c(-c1ccc(Oc3ccccc3)cc1)nn2C1CCCN(CCOCCOCCN2CCC(c3ccc4c(c3)CN(C3CCC(=O)NC3=O)C4=O)CC2)C1 (stereo not drawn) [Compound 14, 3-(5-(1-(2-(2-(2-(3-(4-amino-3-(4-phenoxyphenyl)-1H-pyrazolo[3,4-d]pyrimidin-1-yl)piperidin-1-yl)ethoxy)ethoxy)ethyl)piperidin-4-yl)-1-oxoisoindolin-2-yl)piperidine-2,6-dione] | 5.00 to 6.00 | 5.00 to 6.00 | > 90 | 0.01 to 0.05
11 | Nc1ncnc2c1c(-c1ccc(Oc3ccccc3)cc1)nn2C1CCCN(CCOCCN2CCC(c3ccc4c(c3)C(=O)N(C3CCC(=O)NC3=O)C4=O)CC2)C1 (stereo not drawn) [Compound 15, 5-(1-(2-(2-(3-(4-amino-3-(4-phenoxyphenyl)-1H-pyrazolo[3,4-d]pyrimidin-1-yl)piperidin-1-yl)ethoxy)ethyl)piperidin-4-yl)-2-(2,6-dioxopiperidin-3-yl)isoindoline-1,3-dione] | 5.00 to 6.00 | 5.00 to 6.00 | > 75 | 0.01 to 0.05
12 | Nc1ncnc2c1c(-c1ccc(Oc3ccccc3)cc1)nn2C1CCCN(CCOCCN2CCC(c3ccc4c(c3)CN(C3CCC(=O)NC3=O)C4=O)CC2)C1 (stereo not drawn) [Compound 16, 3-(5-(1-(2-(2-(3-(4-amino-3-(4-phenoxyphenyl)-1H-pyrazolo[3,4-d]pyrimidin-1-yl)piperidin-1-yl)ethoxy)ethyl)piperidin-4-yl)-1-oxoisoindolin-2-yl)piperidine-2,6-dione] | 5.00 to 6.00 | 5.00 to 6.00 | > 90 | 0.01 to 0.05
13 | Nc1ncnc2c1c(-c1ccc(Oc3ccccc3)cc1)nn2C1CCN(CCOCCOCCC2CCN(c3ccc4c(c3)C(=O)N(C3CCC(=O)NC3=O)C4=O)CC2)CC1 (stereo not drawn) [Compound 17, 5-(4-(2-(2-(2-(4-(4-amino-3-(4-phenoxyphenyl)-1H-pyrazolo[3,4-d]pyrimidin-1-yl)piperidin-1-yl)ethoxy)ethoxy)ethyl)piperidin-1-yl)-2-(2,6-dioxopiperidin-3-yl)isoindoline-1,3-dione] | 5.00 to 6.00 | 5.00 to 6.00 | > 90 | < 0.01
14 | Nc1ncnc2c1c(-c1ccc(Oc3ccccc3)cc1)nn2C1CCN(CCOCCOCCC2CCN(c3ccc4c(c3)CN(C3CCC(=O)NC3=O)C4=O)CC2)CC1 (stereo not drawn) [Compound 18, 3-(5-(4-(2-(2-(2-(4-(4-amino-3-(4-phenoxyphenyl)-1H-pyrazolo[3,4-d]pyrimidin-1-yl)piperidin-1-yl)ethoxy)ethoxy)ethyl)piperidin-1-yl)-1-oxoisoindolin-2-yl)piperidine-2,6-dione] | > 6.00 | 5.00 to 6.00 | > 90 | < 0.01
15 | Nc1ncnc2c1c(-c1ccc(Oc3ccccc3)cc1)nn2C1CCN(CCOCCC2CCN(c3ccc4c(c3)C(=O)N(C3CCC(=O)NC3=O)C4=O)CC2)CC1 (stereo not drawn) [Compound 19, 5-(4-(2-(2-(4-(4-amino-3-(4-phenoxyphenyl)-1H-pyrazolo[3,4-d]pyrimidin-1-yl)piperidin-1-yl)ethoxy)ethyl)piperidin-1-yl)-2-(2,6-dioxopiperidin-3-yl)isoindoline-1,3-dione] | 5.00 to 6.00 | 5.00 to 6.00 | > 90 | 0.01 to 0.05
16 | Nc1ncnc2c1c(-c1ccc(Oc3ccccc3)cc1)nn2C1CCN(CCOCCC2CCN(c3ccc4c(c3)CN(C3CCC(=O)NC3=O)C4=O)CC2)CC1 (stereo not drawn) [Compound 20, 3-(5-(4-(2-(2-(4-(4-amino-3-(4-phenoxyphenyl)-1H-pyrazolo[3,4-d]pyrimidin-1-yl)piperidin-1-yl)ethoxy)ethyl)piperidin-1-yl)-1-oxoisoindolin-2-yl)piperidine-2,6-dione] | 5.00 to 6.00 | 5.00 to 6.00 | > 90 | 0.01 to 0.05
17 | Nc1ncnc2c1c(-c1ccc(Oc3ccccc3)cc1)nn2C1CCCN(CCOCCOCCC2CCN(c3ccc4c(c3)C(=O)N(C3CCC(=O)NC3=O)C4=O)CC2)C1 (stereo not drawn) [Compound 21, 5-(4-(2-(2-(2-(3-(4-amino-3-(4-phenoxyphenyl)-1H-pyrazolo[3,4-d]pyrimidin-1-yl)piperidin-1-yl)ethoxy)ethoxy)ethyl)piperidin-1-yl)-2-(2,6-dioxopiperidin-3-yl)isoindoline-1,3-dione] | 5.00 to 6.00 | 5.00 to 6.00 | > 90 | < 0.01
18 | Nc1ncnc2c1c(-c1ccc(Oc3ccccc3)cc1)nn2C1CCCN(CCOCCOCCC2CCN(c3ccc4c(c3)CN(C3CCC(=O)NC3=O)C4=O)CC2)C1 (stereo not drawn) [Compound 22, 3-(5-(4-(2-(2-(2-(3-(4-amino-3-(4-phenoxyphenyl)-1H-pyrazolo[3,4-d]pyrimidin-1-yl)piperidin-1-yl)ethoxy)ethoxy)ethyl)piperidin-1-yl)-1-oxoisoindolin-2-yl)piperidine-2,6-dione] | 5.00 to 6.00 | > 6.00 | > 90 | < 0.01
